Square brackets hold non-standard residues; d marks the D form. Peptide text beside a SMILES is read from it. * marks the point of attachment. Dip = N[C@H](C(=O)O)C(c1ccccc1)c1ccccc1; CH2(1-naphthyl) = c1ccc2c(C*)cccc2c1; Abu(4,4-F2) = N[C@@H](CC(F)F)C(=O)O; Hyp = O=C(O)[C@@H]1C[C@@H](O)CN1; Cha = N[C@@H](CC1CCCCC1)C(=O)O; Chg = N[C@H](C(=O)O)C1CCCCC1; Ac3c = NC1(C(=O)O)CC1
Legend:
Hepatitis C virus [1] = assay: Antiviral activity against HCV genotype 1b; type: functional, organism-based, Hepacivirus hominis
Hepatitis C virus [2] = assay: Antiviral activity against HCV genotype 1a; type: functional, organism-based, Hepacivirus hominis
[3] = Half life in dog liver microsomes; type: ADME, Canis lupus familiaris, Microsome
[4] = target: RNA-directed RNA polymerase (Hepacivirus hominis, UniProt O39930); assay: Inhibition of Hepatitis C virus NS5B polymerase
Chain of RNA-directed RNA polymerase (O39930 whole entry): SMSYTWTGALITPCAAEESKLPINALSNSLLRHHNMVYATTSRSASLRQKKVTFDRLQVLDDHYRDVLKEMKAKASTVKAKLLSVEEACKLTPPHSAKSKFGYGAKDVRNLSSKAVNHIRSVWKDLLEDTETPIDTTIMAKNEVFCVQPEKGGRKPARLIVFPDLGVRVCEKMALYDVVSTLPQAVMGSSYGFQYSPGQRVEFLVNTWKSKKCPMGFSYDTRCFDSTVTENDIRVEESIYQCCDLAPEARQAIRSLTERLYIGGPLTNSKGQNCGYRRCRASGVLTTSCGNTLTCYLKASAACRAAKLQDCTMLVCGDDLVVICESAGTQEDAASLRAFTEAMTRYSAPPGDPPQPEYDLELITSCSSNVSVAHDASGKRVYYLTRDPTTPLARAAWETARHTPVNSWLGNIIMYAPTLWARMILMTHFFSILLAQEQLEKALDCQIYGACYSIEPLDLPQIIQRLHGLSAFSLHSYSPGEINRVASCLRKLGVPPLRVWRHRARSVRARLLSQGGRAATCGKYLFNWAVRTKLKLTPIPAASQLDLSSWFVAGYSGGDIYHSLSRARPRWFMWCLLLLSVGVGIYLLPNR

Hepatitis C virus [5] = assay: Antiviral activity against HCV GT1a-genotype assessed as inhibition of viral replication; type: functional, organism-based, Hepacivirus hominis
[6] = target: T1, Nuclear receptor subfamily 1 group I member 2 (Homo sapiens, UniProt O75469); assay: Inhibition of PXR (unknown origin)
T1 sequence (O75469 whole entry): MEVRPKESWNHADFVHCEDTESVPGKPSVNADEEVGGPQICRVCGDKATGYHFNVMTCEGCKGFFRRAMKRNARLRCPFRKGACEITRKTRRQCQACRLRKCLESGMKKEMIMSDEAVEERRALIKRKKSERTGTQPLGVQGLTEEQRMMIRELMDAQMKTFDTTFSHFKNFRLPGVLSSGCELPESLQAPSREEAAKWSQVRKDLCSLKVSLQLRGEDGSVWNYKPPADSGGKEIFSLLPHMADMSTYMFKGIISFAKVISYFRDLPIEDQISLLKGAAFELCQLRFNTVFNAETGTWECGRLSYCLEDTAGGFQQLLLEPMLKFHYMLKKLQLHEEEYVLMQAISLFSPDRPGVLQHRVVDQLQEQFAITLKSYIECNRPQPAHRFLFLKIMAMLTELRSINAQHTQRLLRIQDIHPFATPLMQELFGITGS

Hepatitis C virus [7] = assay: Antiviral activity against HCV GT1b-genotype assessed as viral growth inhibition measured after 24 hrs; type: functional, organism-based, Hepacivirus hominis; conditions: Hepatitis C virus, GT1b-genotype, 24 h
Hepatitis C virus [8] = assay: Antiviral activity against HCV genotype 1b Tyr93His mutant; conditions: Hepacivirus hominis
Hepatitis C virus [9] = assay: Antiviral activity against HCV genotype 1b harboring NS5A Y93H mutant; type: functional, organism-based, Hepacivirus hominis
[10] = Binding affinity to Hepatitis C virus NS3 assessed as inhibition constant; parameters: species or system Hepacivirus hominis
[11] = Binding affinity to Hepatitis C virus NS3 protease (1027 to 1206 residues) expressed in Escherichia coli assessed as inhibition constant; parameters: species or system Hepacivirus hominis
[12] = target: T2, Hepatitis C virus serine protease, NS3/NS4A (Hepatitis C virus, UniProt A3EZI9+D2K2A8); assay: Inhibition of Hepatitis C virus NS3/NS4A protease; type: protein-complex assay, Hepacivirus hominis
T2 sequence (D2K2A8 whole entry): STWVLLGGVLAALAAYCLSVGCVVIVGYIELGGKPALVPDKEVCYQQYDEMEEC
T2 sequence (A3EZI9 whole entry): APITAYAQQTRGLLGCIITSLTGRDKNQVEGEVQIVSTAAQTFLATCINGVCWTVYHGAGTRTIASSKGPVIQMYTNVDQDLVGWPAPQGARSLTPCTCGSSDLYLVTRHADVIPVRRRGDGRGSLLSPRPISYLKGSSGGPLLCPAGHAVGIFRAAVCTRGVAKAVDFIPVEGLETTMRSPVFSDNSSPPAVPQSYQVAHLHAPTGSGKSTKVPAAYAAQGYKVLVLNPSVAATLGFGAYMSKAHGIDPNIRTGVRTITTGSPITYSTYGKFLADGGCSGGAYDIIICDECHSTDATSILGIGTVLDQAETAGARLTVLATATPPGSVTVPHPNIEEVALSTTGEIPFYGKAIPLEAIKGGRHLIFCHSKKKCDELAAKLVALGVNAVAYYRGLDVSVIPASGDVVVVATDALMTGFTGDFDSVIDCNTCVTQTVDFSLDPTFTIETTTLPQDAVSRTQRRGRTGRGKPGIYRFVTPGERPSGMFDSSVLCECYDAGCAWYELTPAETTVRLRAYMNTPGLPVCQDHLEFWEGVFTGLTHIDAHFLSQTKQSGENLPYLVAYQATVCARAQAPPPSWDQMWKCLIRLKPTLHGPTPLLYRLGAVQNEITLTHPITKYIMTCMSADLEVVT

[13] = target: T2, Hepatitis C virus serine protease, NS3/NS4A; assay: Inhibition of HCV NS4A-NS3 protease; type: protein-complex assay, Hepacivirus hominis

## COC(=O)N[C@@H](C(=O)N1CCC[C@H]1c1ncc(-c2ccc(-c3ccc(-c4cnc([C@@H]5CCCN5C(=O)[C@H](NC(=O)OC)c5ccccc5)[nH]4)cc3)cc2)[nH]1)c1ccccc1
Hepatitis C virus [1]
  EC50: 0.0067 nM
Hepatitis C virus [2]
  EC50: 0.028 nM

## C=C[C@@H]1C[C@]1(NC(=O)[C@@H]1C[C@@H](Oc2cc(-c3ccccc3)nc3cc(OC)ccc23)CN1C(=O)[C@@H](NC(=O)OC(C)(C)C)C(C)(C)C)C(=O)NS(=O)(=O)C1CC1
[3]
  half-life: 2.83 h

## Cn1c(-c2ccccc2)c(C2CCCCC2)c2ccc(C(=O)O)cc21
[4]
  IC50: 120 nM

## COc1ccc2c(c1)C=C(C(=O)N1C[C@@H](C)O[C@@H](C)C1)Cn1c-2c(C2CCCCC2)c2ccc(C(=O)NS(=O)(=O)N(C)C)cc21
Hepatitis C virus [5]
  EC50: 40 nM
[6]
  IC50: > 10000 nM
Hepatitis C virus [7]
  EC50: 40 nM

## O=C1N[C@H]2[C@H](CS[C@H]2CCCCC(=O)N2CCC[C@H]2C(=O)Nc2ccc(/C=C/c3ccc(NC(=O)[C@@H]4CCCN4C(=O)Cc4ccccc4)cc3)cc2)N1
Hepatitis C virus [1]
  EC50: > 10000 nM
Hepatitis C virus [2]
  EC50: 33 nM
Hepatitis C virus [8]
  EC50: > 10000 nM

## C[C@H](NC(=O)Cc1ccccc1)C(=O)Nc1ccc(C2(O)C(=O)N(Cc3ccco3)C(=S)N2c2cccc(F)c2)cc1 (stereo partly specified)
Hepatitis C virus [9]
  EC50: 43 nM

## CC(C)C[C@H](NC(=O)[C@H](CCC(=O)O)NC(=O)OC(C)(C)C)C(=O)NC(CC(F)F)C(=O)C(=O)O (stereo partly specified)
[10]
  Ki: 17000 nM
[11]
  Ki: 27 nM

## Fc1cccc(NC(=S)NCc2ccco2)c1
Hepatitis C virus [9]
  EC50: 0.6 nM

## COc1ccc2c(c1)[C@@H]1C[C@]1(C(=O)N1C[C@@H](C)O[C@@H](C)C1)Cn1c-2c(C2CCCCC2)c2ccc(C(=O)NS(=O)(=O)N(C)C)cc21
Hepatitis C virus [5]
  EC50: 1 nM
Hepatitis C virus [7]
  EC50: 3 nM

## CC(=O)N[C@@H](CC(=O)O)C(=O)N[C@@H](CCC(=O)O)C(=O)N[C@H](C(=O)N[C@@H](CCC(=O)O)C(=O)N[C@@H](CC1CCCCC1)C(=O)N[C@@H](CC(F)F)C(=O)O)C(c1ccccc1)c1ccccc1 (Ac-DE[Dip]E[Cha][Abu(4,4-F2)]-OH)
[12]
  Ki: 3 nM

## CC(=O)N[C@H](C(=O)N[C@H](C(=O)N1C[C@H](OCc2cccc3ccccc23)C[C@H]1C(=O)NC1(C(=O)O)CC1)C(C)C)C1CCCCC1 (Ac-[Chg]V[Hyp](CH2(1-naphthyl))[Ac3c]-OH)
[13]
  IC50: 3500 nM

## COc1ccc2c(c1)C1CC1(C(=O)N1C3CCC1CN(C)C3)Cn1c-2c(C2CCCCC2)c2ccc(C(=O)NS(=O)(=O)N(C)C)cc21 (racemic)
Hepatitis C virus [1]
  EC50: 208 nM
Hepatitis C virus [2]
  EC50: 3 nM

## Ac-DEMEEC-OH
[10]
  Ki: 600 nM

From ChEMBL document CHEMBL5252531, “2015 Philip S. Portoghese Medicinal Chemistry Lectureship. Curing Hepatitis C Virus Infection with Direct-Acting Antiviral Agents: The Arc of a Medicinal Chemistry Triumph” (J Med Chem, 2016)
